Results published in ChEMBL document CHEMBL5126517, “Structure-Activity Relationship in the Leucettine Family of Kinase Inhibitors” (J Med Chem, 2022).

What was measured:
[1] = Neurotoxicity against mouse HT-22 cells assessed as cell survival at 20 uM treated for 24 hrs by MTS assay; type: toxicity, cell-based; conditions: ht-22, 24 h
[2] = target: Dual specificity tyrosine-phosphorylation-regulated kinase 1A (Homo sapiens, UniProt Q13627); experiment: Inhibition of GST-fused human recombinant DYRK1A expressed in Escherichia coli using GRSRSRSRSRSR peptide as substrate incubated for 30 mins in presence of ATP by scintillation counting method
Casein kinase 2 = Casein kinase 2 (Homo sapiens, UniProt P67870+P68400+P19784+Q8NEV1); experiment: Inhibition of human recombinant CK2 using RRRDDDSDDD peptide as substrate incubated for 30 mins in presence of ATP by scintillation counting method; type: protein assay
Cannabinoid receptor 1 = Cannabinoid receptor 1 (Homo sapiens, UniProt P21554); experiment: Antagonist activity at CP-55940-activated CB1 receptor (unknown origin) at 10 uM by beta-arrestin assay relative to control; type: functional; set-up: scale not given: the % may be the effect or the level left
[3] = target: Glycogen synthase kinase-3 (Sus scrofa, UniProt B2LUN4+I6LNT8); experiment: Inhibition of porcine brain GSK-3alpha/beta using YRRAAVPPSPSLSRHSSPHQpSEDEEE as substrate incubated for 30 mins in presence of ATP by scintillation counting method; type: tissue-based
[4] = target: Dual specificity protein kinase CLK4 (Mus musculus, UniProt O35493); experiment: Inhibition of GST-fused mouse recombinant CLK4 expressed in Escherichia coli using GRSRSRSRSRSR peptide as substrate incubated for 30 mins in presence of ATP by scintillation counting method
[5] = target: T1, Dual specificity tyrosine-phosphorylation-regulated kinase 3 (Homo sapiens, UniProt O43781); experiment: Inhibition of GST-fused human recombinant DYRK3 expressed in Escherichia coli using GRSRSRSRSRSR peptide as substrate incubated for 30 mins in presence of ATP by scintillation counting method
T1 sequence (O43781 whole entry): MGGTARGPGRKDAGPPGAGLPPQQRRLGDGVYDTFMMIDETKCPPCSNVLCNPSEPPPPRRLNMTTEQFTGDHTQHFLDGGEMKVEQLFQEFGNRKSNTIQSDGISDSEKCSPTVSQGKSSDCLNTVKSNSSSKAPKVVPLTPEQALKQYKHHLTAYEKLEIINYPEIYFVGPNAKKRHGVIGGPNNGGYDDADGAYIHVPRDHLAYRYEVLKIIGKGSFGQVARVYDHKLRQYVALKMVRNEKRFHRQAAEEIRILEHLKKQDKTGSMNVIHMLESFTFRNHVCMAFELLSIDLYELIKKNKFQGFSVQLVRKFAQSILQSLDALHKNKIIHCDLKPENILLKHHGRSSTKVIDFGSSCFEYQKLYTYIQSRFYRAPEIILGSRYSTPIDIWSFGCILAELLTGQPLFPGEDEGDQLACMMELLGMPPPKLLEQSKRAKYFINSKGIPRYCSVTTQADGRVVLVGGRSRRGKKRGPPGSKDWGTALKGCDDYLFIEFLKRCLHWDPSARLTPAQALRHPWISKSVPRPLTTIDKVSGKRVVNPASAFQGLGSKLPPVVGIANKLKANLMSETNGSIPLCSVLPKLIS

[6] = target: Serine/threonine-protein kinase pim-1 (Homo sapiens, UniProt P11309); experiment: Inhibition of human recombinant Pim1 expressed in Escherichia coli using histone H1 as substrate incubated for 30 mins in presence of ATP by scintillation counting method
[7] = target: Dual specificity protein kinase CLK2 (Mus musculus, UniProt O35491); experiment: Inhibition of mouse recombinant GST-fused CLK2 expressed in Escherichia coli using GRSRSRSRSRSR peptide as substrate incubated for 30 mins in presence of ATP by scintillation counting method
HT-22 [8] = experiment: Modulation of CLK1 pre-mRNA splicing in mouse HT-22 cells assessed as inclusion of CLK1 exon 4 by measuring change in threshold cycle at 10 uM measured after 4 hrs by real time PCR analysis; type: cell-based; conditions: filed as modulator
[9] = target: Dual specificity tyrosine-phosphorylation-regulated kinase 1B (Homo sapiens, UniProt Q9Y463)
[10] = target: Dual specificity protein kinase CLK1 (Mus musculus, UniProt P22518); experiment: Inhibition of GST-fused mouse recombinant CLK1 expressed in Escherichia coli using GRSRSRSRSRSR peptide as substrate incubated for 30 mins in presence of ATP by scintillation counting method
[11] = target: Dual specificity protein kinase CLK3 (Mus musculus, UniProt O35492); experiment: Inhibition of GST-fused mouse recombinant CLK3 expressed in Escherichia coli using GRSRSRSRSRSR peptide as substrate incubated for 30 mins in presence of ATP by scintillation counting method
[12] = target: T2, Dual specificity tyrosine-phosphorylation-regulated kinase 2 (Homo sapiens, UniProt Q92630); experiment: Inhibition of GST-fused human recombinant DYRK2 expressed in Escherichia coli using GRSRSRSRSRSR peptide as substrate incubated for 30 mins in presence of ATP by scintillation counting method
T2 sequence (Q92630 whole entry): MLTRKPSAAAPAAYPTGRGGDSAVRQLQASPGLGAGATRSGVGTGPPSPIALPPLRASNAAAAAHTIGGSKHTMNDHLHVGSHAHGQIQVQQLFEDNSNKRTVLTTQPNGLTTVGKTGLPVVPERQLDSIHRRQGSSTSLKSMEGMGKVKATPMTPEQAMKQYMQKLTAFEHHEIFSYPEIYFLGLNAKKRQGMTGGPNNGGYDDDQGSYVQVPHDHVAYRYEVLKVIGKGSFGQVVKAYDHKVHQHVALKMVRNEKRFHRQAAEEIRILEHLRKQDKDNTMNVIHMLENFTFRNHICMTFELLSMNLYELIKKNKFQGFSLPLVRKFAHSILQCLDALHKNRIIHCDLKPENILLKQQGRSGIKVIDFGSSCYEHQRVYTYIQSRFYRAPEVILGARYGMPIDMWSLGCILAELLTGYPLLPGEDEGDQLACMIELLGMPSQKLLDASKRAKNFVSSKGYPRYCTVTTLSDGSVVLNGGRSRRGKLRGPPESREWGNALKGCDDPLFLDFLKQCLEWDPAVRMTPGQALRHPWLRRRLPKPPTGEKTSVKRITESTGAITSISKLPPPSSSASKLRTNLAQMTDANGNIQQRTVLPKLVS

U2OS = experiment: Induction of PI3K/mTor-dependent autophagy in human U2OS cells assessed as number of LC3 foci per cell at 10 uM measured after 4 hrs; type: cell-based; conditions: filed as activator
HT-22 [13] = experiment: Neuroprotective activity against glutamate-induced cell death in mouse HT-22 cells treated for 24 hrs by MTS assay; type: functional, cell-based; conditions: HT-22, 24 h

Dual specificity protein kinase CLK1, sequence (P22518 whole entry, the tested form may be a part): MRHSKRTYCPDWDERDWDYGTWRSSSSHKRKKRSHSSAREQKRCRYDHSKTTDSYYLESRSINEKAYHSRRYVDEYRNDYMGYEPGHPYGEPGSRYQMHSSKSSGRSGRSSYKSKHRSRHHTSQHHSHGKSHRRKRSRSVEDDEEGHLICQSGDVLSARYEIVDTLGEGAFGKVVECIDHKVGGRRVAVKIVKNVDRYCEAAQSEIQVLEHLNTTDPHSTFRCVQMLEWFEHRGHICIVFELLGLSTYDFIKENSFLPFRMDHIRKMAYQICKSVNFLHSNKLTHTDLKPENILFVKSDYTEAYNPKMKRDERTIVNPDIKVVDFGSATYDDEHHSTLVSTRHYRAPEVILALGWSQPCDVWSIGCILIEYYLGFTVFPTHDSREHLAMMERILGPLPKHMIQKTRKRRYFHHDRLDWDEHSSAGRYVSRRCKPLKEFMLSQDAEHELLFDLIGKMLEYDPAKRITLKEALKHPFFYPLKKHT
Cannabinoid receptor 1, sequence (P21554 whole entry): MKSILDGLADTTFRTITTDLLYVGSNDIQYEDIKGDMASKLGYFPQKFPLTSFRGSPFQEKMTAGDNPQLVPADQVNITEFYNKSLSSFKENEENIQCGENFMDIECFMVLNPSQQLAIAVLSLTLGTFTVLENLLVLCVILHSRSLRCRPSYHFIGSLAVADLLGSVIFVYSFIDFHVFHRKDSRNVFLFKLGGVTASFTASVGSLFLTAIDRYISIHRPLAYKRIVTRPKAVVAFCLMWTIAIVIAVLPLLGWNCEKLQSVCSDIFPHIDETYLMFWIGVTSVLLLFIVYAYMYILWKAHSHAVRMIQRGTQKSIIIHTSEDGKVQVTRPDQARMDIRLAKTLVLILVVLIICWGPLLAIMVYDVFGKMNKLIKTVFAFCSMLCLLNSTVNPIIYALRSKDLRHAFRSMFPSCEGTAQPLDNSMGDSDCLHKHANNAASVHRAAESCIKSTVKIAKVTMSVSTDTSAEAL
Dual specificity tyrosine-phosphorylation-regulated kinase 1B, sequence (Q9Y463 whole entry, the tested form may be a part): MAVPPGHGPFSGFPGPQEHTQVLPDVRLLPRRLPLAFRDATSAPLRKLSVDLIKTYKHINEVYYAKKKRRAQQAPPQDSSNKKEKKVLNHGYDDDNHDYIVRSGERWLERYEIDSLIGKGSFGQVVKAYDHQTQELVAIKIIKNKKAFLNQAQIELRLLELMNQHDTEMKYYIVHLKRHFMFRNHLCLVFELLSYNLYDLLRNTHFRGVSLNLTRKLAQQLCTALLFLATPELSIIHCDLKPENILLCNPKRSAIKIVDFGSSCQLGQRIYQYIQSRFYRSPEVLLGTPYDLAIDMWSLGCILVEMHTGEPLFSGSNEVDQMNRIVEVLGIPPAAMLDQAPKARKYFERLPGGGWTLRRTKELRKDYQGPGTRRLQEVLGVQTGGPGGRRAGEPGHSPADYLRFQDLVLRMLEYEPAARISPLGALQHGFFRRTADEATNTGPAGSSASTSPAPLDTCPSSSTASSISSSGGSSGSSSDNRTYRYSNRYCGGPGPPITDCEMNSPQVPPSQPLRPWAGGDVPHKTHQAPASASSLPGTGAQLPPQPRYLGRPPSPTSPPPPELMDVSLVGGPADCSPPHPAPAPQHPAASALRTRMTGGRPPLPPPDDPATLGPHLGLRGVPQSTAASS
Serine/threonine-protein kinase pim-1, sequence (P11309 whole entry, the tested form may be a part): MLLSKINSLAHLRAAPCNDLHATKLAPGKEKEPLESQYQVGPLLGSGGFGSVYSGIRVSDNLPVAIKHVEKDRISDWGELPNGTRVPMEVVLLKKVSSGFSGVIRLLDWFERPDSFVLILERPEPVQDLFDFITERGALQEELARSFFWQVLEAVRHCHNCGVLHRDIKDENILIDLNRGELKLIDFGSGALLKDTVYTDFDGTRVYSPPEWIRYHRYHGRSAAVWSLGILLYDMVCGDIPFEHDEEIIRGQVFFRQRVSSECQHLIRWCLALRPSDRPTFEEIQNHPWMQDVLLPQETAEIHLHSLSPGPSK
Dual specificity protein kinase CLK3, sequence (O35492 whole entry, the tested form may be a part): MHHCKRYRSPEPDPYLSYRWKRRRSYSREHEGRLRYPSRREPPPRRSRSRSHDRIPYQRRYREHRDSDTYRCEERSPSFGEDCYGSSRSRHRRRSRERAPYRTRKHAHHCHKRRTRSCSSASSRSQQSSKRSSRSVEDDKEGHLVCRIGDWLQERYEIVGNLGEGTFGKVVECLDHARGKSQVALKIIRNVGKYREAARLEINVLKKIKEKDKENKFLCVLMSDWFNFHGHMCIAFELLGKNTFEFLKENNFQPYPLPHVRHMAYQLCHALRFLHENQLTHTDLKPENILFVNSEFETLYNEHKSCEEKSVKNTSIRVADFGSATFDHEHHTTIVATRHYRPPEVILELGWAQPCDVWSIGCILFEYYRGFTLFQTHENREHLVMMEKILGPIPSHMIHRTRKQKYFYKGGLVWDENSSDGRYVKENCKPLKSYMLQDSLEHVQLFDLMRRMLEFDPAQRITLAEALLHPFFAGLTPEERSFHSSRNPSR
Dual specificity protein kinase CLK2, sequence (O35491 whole entry, the tested form may be a part): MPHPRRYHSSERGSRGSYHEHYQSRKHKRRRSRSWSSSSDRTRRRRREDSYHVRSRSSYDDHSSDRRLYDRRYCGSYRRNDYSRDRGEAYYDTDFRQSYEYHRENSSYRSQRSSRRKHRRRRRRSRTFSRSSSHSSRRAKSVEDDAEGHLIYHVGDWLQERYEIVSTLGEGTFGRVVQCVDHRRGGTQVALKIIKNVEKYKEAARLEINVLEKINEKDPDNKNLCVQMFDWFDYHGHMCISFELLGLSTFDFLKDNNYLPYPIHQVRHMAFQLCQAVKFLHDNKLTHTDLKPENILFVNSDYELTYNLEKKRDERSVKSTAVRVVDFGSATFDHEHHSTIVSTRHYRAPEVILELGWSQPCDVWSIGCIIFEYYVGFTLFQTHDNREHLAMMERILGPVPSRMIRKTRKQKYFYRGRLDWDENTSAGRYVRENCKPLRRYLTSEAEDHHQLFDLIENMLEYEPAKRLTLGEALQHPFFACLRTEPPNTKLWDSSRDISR
Dual specificity protein kinase CLK4, sequence (O35493 whole entry, the tested form may be a part): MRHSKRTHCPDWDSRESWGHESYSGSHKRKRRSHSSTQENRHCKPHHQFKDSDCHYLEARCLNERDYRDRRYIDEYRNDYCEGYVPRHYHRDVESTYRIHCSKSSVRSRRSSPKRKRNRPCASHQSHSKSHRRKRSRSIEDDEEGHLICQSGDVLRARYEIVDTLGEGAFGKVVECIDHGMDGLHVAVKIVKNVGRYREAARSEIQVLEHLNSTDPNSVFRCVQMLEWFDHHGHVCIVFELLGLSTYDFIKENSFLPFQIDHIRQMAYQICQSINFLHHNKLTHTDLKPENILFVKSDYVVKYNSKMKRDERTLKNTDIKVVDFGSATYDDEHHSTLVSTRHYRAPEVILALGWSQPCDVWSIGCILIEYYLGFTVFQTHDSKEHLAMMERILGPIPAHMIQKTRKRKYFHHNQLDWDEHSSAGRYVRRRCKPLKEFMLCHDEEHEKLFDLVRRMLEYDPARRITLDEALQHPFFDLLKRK

| SMILES | Activity [1] | IC50 [2] | IC50 (Casein kinase 2) | Activity (Cannabinoid receptor 1) | IC50 [3] | IC50 [4] | IC50 [5] | IC50 [6] | IC50 [7] | deltaCT (HT-22 [8]) | IC50 [9] | IC50 [10] | IC50 [11] | IC50 [12] | Activity (U2OS) | EC50 (HT-22 [13]) | Activity (Cannabinoid receptor 1; filed as antagonist) |
| --- | --- | --- | --- | --- | --- | --- | --- | --- | --- | --- | --- | --- | --- | --- | --- | --- | --- |
| CCCSC1=N/C(=C\c2ccc3c(c2)OCO3)C(=O)N1C | Non-Toxic | 340 nM | > 10000 nM | 37.2% | 2000 nM | 22 nM | 620 nM | 2000 nM | 320 nM | -1.36 | 620 nM | 64 nM | > 10000 nM | 330 nM | 6.2 |  |  |
| O=C1NC(N2CCOCC2)=N/C1=C\c1ccc2c(c1)OCO2 | Non-Toxic | 440 nM | 1100 nM | -51% | 6500 nM | 290 nM | 1900 nM | 2400 nM | 1500 nM | 0.63 | 1700 nM | 430 nM | 5600 nM | 410 nM | 6.5 |  |  |
| O=C1NC(N2CCC(N3CCCCC3)CC2)=N/C1=C\c1ccc2c(c1)OCO2 | Non-Toxic | 1100 nM | > 10000 nM | -51.1% | 6200 nM | 1400 nM | 5200 nM | 7600 nM | 3200 nM | 0.42 | 4400 nM | 920 nM | > 10000 nM | 1400 nM | 7.1 |  |  |
| O=C1OC(Nc2ccccc2)=N/C1=C\c1ccc2c(c1)OCO2 | Non-Toxic |  |  | -37.5% |  |  |  |  |  | -0.18 |  |  |  |  | 6.2 |  |  |
| O=C1NC(NC2CCNCC2)=N/C1=C\c1ccc2c(c1)OCO2 | Non-Toxic | 340 nM | > 10000 nM | -43.5% | 1300 nM | 260 nM | 910 nM | 6400 nM | 900 nM | 0.36 | 650 nM | 220 nM | 5300 nM | 250 nM | 7.4 |  |  |
| CCSC1NC(=O)/C(=C/c2ccc3c(c2)OCO3)N1C (stereo not drawn) | Non-Toxic |  |  | -10.7% |  |  |  |  |  | 0.23 |  |  |  |  | 6.5 |  |  |
| CCCCCOc1ccc(NC2=N/C(=C\c3ccc4c(c3)OCO4)C(=O)N2)cc1 | Non-Toxic | 710 nM | 1300 nM | 37.4% | > 10000 nM | 620 nM | 7000 nM | ≥ 10000 nM | 3100 nM |  | 2300 nM | 850 nM | > 10000 nM | 510 nM | 7 | 1140 nM |  |
| O=C1NC(N2CCCCC2)=N/C1=C\c1ccc2c(c1)OCO2 | Non-Toxic | 130 nM | 760 nM | -58.4% | 2600 nM | 250 nM | 530 nM | 880 nM | 1300 nM | 0.68 | 440 nM | 240 nM | 4500 nM | 220 nM | 6.8 |  |  |
| Cn1cc(Cc2ccc3c(c2)OCO3)nc1N | Non-Toxic | > 10000 nM |  | 8.9% |  | 3000 nM | > 10000 nM |  | > 10000 nM | 0.38 |  | 3200 nM | > 10000 nM | > 10000 nM | 5.3 |  |  |
| CCSC1=N/C(=C\c2ccc3c(c2)OCO3)C(=O)N1C | Non-Toxic | 240 nM | > 10000 nM | -0.7% | 1100 nM | 110 nM | 300 nM | 2100 nM | 420 nM | -0.99 | 980 nM | 120 nM | 2100 nM | 340 nM | 6.8 |  |  |
| CSC1=N/C(=C\c2ccc3c(c2)OCO3)C(=O)N1 | Non-Toxic | 110 nM | 2200 nM | -23% | 1800 nM | 80 nM | 410 nM | 1200 nM | 250 nM | 0.13 | 330 nM | 73 nM | 2400 nM | 80 nM | 5.9 |  |  |
| Cc1ccc(NC2=N/C(=C\c3ccc4c(c3)OCO4)C(=O)N2)c(C)c1 | Non-Toxic | 72 nM | 2400 nM |  | 1400 nM | 140 nM | 950 nM | 2500 nM | 1100 nM |  | 160 nM | 240 nM | > 10000 nM | 75 nM | 5.6 | 8000 nM | 65.6% |
| O=C1NC(N2CCCC2)=N/C1=C\c1ccc2c(c1)OCO2 | Non-Toxic | 630 nM | 1200 nM | -59.1% | 6200 nM | 380 nM | 930 nM | 1500 nM | 2300 nM | 0.05 | 2300 nM | 600 nM | 3200 nM | 930 nM | 5 |  |  |
| O=C1NC(Nc2cccc(F)c2)=N/C1=C\c1ccc2c(c1)OCO2 | Non-Toxic | 19 nM | 800 nM |  | 560 nM | 30 nM | 350 nM | 1200 nM | 130 nM |  | 35 nM | 52 nM | 560 nM | 23 nM | 7.5 | 5000 nM | 83.4% |
| COc1ccc(NC2=N/C(=C\c3ccc4c(c3)OCO4)C(=O)N2)cc1 | Non-Toxic | 110 nM | > 10000 nM |  | > 10000 nM | 130 nM | 6000 nM |  | 7500 nM | 0.5 | 270 nM | 140 nM | > 10000 nM | 130 nM | 5.9 |  | 50.5% |
